According to patent US20070117743A1, “New antitumoral compounds” (priority 2003, published 2007):

Experiments:
Format in all cases: cell-based, human
LoVo = test: SRB colorimetric assay of cell growth and viability, LoVo; conditions: 48 hours exposure; for CC50: read-out: LC50 LOVO
IGROV-ET = test: SRB colorimetric assay of cell growth and viability, IGROV-ET; conditions: 48 hours exposure; for CC50: read-out: LC50 IGROV-ET
HeLa = test: SRB colorimetric assay of cell growth and viability, HeLa; conditions: 48 hours exposure; for CC50: read-out: LC50 HELA
K-562 = test: SRB colorimetric assay of cell growth and viability, K-562; conditions: 48 hours exposure; for CC50: read-out: LC50 K-562
PANC-1 = test: SRB colorimetric assay of cell growth and viability, PANC-1; conditions: 48 hours exposure; for CC50: read-out: LC50 PANC-1
LNCaP = test: SRB colorimetric assay of cell growth and viability, LNCaP; conditions: 48 hours exposure; for GI50: read-out: GI50 LN-caP; for CC50: read-out: LC50 LN-caP
SK-BR-3 = test: SRB colorimetric assay of cell growth and viability, SK-BR-3; conditions: 48 hours exposure
IGROV-1 = test: SRB colorimetric assay of cell growth and viability, IGROV-1; conditions: 48 hours exposure
SK-MEL-28 = test: SRB colorimetric assay of cell growth and viability, SK-MEL-28; conditions: 48 hours exposure; for CC50: read-out: LC50 MEL-28
HT-29 = test: SRB colorimetric assay of cell growth and viability, HT-29; conditions: 48 hours exposure; for GI50: read-out: GI50 HT-29; for CC50: read-out: LC50 HT-29
HeLa-APL = test: SRB colorimetric assay of cell growth and viability, HeLa-APL; conditions: 48 hours exposure; for CC50: read-out: LC50 HELA-APL
A-549 = test: SRB colorimetric assay of cell growth and viability, A-549; conditions: 48 hours exposure; for GI50: read-out: GI50 A-549; for CC50: read-out: LC50 A-549
DU-145 = test: SRB colorimetric assay of cell growth and viability, DU-145; conditions: 48 hours exposure

## C/C=C1\NC(=O)[C@H](Cc2ccccc2)NC(=O)[C@@H](C(C)C)NC(=O)[C@@H]([C@@H](C)CC)NC(=O)[C@H](NC(=O)[C@H](NC(=O)[C@H](CCCN)NC(=O)[C@H]2CCCN2C(=O)[C@H](NC(=O)[C@@H](NC(=O)[C@@H](NC(=O)[C@H](NC(=O)CCCCCCCCCCCCCCCCCCC)C(C)C)[C@@H](C)O)C(C)C)C(C)C)[C@@H](C)CC)[C@@H](C)OC(=O)[C@H](C(C)C)NC1=O [Compound 13, [Icos^14]-KF]
LoVo
  GI50: 0.903 µM
  TGI LOVO: 1.79E−06 Molar
  CC50: 3.58 µM
IGROV-ET
  GI50: 1.66 µM
  TGI IGROV-ET: 2.81E−06 Molar
  CC50: 4.79 µM
HeLa
  GI50: 1.4 µM
  TGI HELA: 2.71E−06 Molar
  CC50: 5.25 µM
K-562
  GI50: 1.23 µM
  TGI K-562: 2.42E−06 Molar
  CC50: 4.71 µM
PANC-1
  GI50: 2.02 µM
  TGI PANC-1: 5.48E−06 Molar
  CC50: 6.02 µM
LNCaP
  TGI LN-caP: 2.39E−06 Molar
  GI50: 1.21 µM
  CC50: 4.73 µM
SK-BR-3
  GI50: 0.861 µM
  LC50: 3.99 µM
  TGI SK-BR-3: 1.86E−06 Molar
IGROV-1
  GI50: 1.36 µM
  LC50 (concentration causing 50% net cell killing): 4.68 µM
  TGI IGROV: 2.52E−06 Molar
SK-MEL-28
  GI50: 1.25 µM
  TGI MEL-28: 2.21E−06 Molar
  CC50: 3.93 µM
HT-29
  TGI HT-29: 2.32E−06 Molar
  GI50: 1.26 µM
  CC50: 4.28 µM
HeLa-APL
  GI50: 1.25 µM
  CC50: 3.98 µM
A-549
  TGI A-549: 2.13E−06 Molar
  GI50: 1.18 µM
  CC50: 3.82 µM
DU-145
  GI50: 1.28 µM
  LC50 (concentration causing 50% net cell kill): 4.04 µM
  TGI DU-145: 2.28E−06 Molar

## C/C=C1\NC(=O)[C@H](Cc2ccccc2)NC(=O)[C@@H](C(C)C)NC(=O)[C@@H]([C@@H](C)CC)NC(=O)[C@H](NC(=O)[C@H](NC(=O)[C@H](CCCN)NC(=O)[C@H]2CCCN2C(=O)[C@H](NC(=O)[C@@H](NC(=O)[C@@H](NC(=O)[C@H](NC(=O)c2ccc(C)cc2)C(C)C)[C@@H](C)O)C(C)C)C(C)C)[C@@H](C)CC)[C@@H](C)OC(=O)[C@H](C(C)C)NC1=O [Compound 19, [p-MeBza^14]-KF]
LoVo
  GI50: 0.12 µM
  TGI LOVO: 2.35E−07 Molar
IGROV-ET
  GI50: 0.439 µM
  TGI IGROV-ET: 1.44E−06 Molar
HeLa
  GI50: 0.849 µM
  TGI HELA: 1.95E−06 Molar
K-562
  GI50: 0.762 µM
  TGI K-562: 2.01E−06 Molar
PANC-1
  GI50: 2.06 µM
LNCaP
  TGI LN-caP: 2.55E−06 Molar
  GI50: 1.02 µM
SK-BR-3
  GI50: 0.17 µM
  TGI SK-BR-3: 3.77E−07 Molar
IGROV-1
  GI50: 0.343 µM
  TGI IGROV: 1.37E−06 Molar
SK-MEL-28
  GI50: 1.16 µM
  TGI MEL-28: 2.24E−06 Molar
HT-29
  TGI HT-29: 1.12E−06 Molar
  GI50: 0.314 µM
HeLa-APL
  GI50: 0.923 µM
  TGI HELA-APL: 2.00E−06 Molar
A-549
  TGI A-549: 1.71E−06 Molar
  GI50: 0.775 µM
DU-145
  GI50: 0.775 µM
  TGI DU-145: 1.73E−06 Molar

## C/C=C1\NC(=O)[C@H](Cc2ccccc2)NC(=O)[C@@H](C(C)C)NC(=O)[C@@H]([C@@H](C)CC)NC(=O)[C@H](NC(=O)[C@H](NC(=O)[C@H](CCCN)NC(=O)[C@H]2CCCN2C(=O)[C@H](NC(=O)[C@@H](NC(=O)[C@@H](NC(=O)[C@H](NC(=O)c2ccccc2)C(C)C)[C@@H](C)O)C(C)C)C(C)C)[C@@H](C)CC)[C@@H](C)OC(=O)[C@H](C(C)C)NC1=O [Compound 20, [Bza^14]-KF]
LoVo
  GI50: 0.128 µM
  TGI LOVO: 3.03E−07 Molar
  CC50: 0.81 µM
IGROV-ET
  GI50: 0.755 µM
  TGI IGROV-ET: 1.78E−06 Molar
  CC50: 4.2 µM
HeLa
  GI50: 1.11 µM
  TGI HELA: 2.30E−06 Molar
  CC50: 4.76 µM
K-562
  GI50: 0.305 µM
  TGI K-562: 2.12E−06 Molar
  CC50: 6.8 µM
PANC-1
  GI50: 3.79 µM
  TGI PANC-1: 6.80E−06 Molar
  CC50: 6.8 µM
LNCaP
  TGI LN-caP: 2.87E−06 Molar
  GI50: 1.18 µM
  CC50: 6.8 µM
SK-BR-3
  GI50: 0.32 µM
  LC50: 3.38 µM
  TGI SK-BR-3: 1.16E−06 Molar
IGROV-1
  GI50: 0.714 µM
  LC50 (concentration causing 50% net cell killing): 4.2 µM
  TGI IGROV: 1.73E−06 Molar
SK-MEL-28
  GI50: 1.2 µM
  TGI MEL-28: 2.26E−06 Molar
  CC50: 4.23 µM
HT-29
  TGI HT-29: 1.64E−06 Molar
  GI50: 0.694 µM
  CC50: 3.88 µM
HeLa-APL
  GI50: 1.01 µM
  TGI HELA-APL: 2.08E−06 Molar
  CC50: 4.27 µM
A-549
  TGI A-549: 1.95E−06 Molar
  GI50: 0.952 µM
  CC50: 3.97 µM
DU-145
  GI50: 0.939 µM
  LC50 (concentration causing 50% net cell kill): 4.25 µM
  TGI DU-145: 1.99E−06 Molar
